The subject of data set [1] is HeLa cells. Kind of data set: Lactate production inhibition in HeLa cells quantified by GC-MS. Format: cell-based, human. The settings on record: 8 hours; for effect on lactate production: 50-200 μM.
Data set [2] deals with HeLa cells. The experiment in a line: Anticancer potency, 72 hour Sulforhodamine B assay. Conditions: for cell death: HeLa cells, 100 μM, 72 hours; for IC50: Homo sapiens, HeLa, 72 h, read-out: Anticancer potency, 72 hour IC50. It counts as cell-based, human. (In general: Sulforhodamine B stains cellular protein and so reports cell mass.)
Data set [3] deals with T1, LDH-A (Homo sapiens, UniProt P00338). The experiment in a line: Enzyme kinetics, NADH-competition, mixed-model inhibition fit. Format: biochemical.
Another data set deals with WT-MEF. Kind of data set: Growth inhibition in non-cancerous immortalized cell line, SRB assay. It counts as cell-based. Conditions: 100 μM, 72 hours, preliminary.
The subject of data set [4] is HeLa cells. Kind of data set: Intracellular concentration / cellular uptake by LC-MS. Conditions: 500 μM, 30 minutes. Format: cell-based, human.
Data set [5] is described as follows: Stability. It counts as in vitro ADME, human. The settings on record: 30 min at 37 °C, 100 μM.
A short description of data set [6]: Stability. Format: in vitro ADME. The settings on record: RPMI 1640 growth media, 30 min at 37 °C, 100 μM.
Data set [7] addresses T1, LDH-A. Kind of data set: Enzyme inhibition of purified human LDH-A. It counts as biochemical.
The subject of data set [8] is LDH-A. The settings on record: read-out: LDH-A IC50 reported in the literature; cited from earlier work.
The conditions of data set [9]: cited from earlier work.

Entries after “also recorded” stand apart in the source; their conditions may differ.

Take `O=C(O)c1cc2c(C(F)(F)F)cc(-c3ccccc3)cc2n1O` [Compound 1, 1-Hydroxy-6-phenyl-4-(trifluoromethyl)-1H-indol-2-carboxylic acid]: the “lactate production relative to vehicle” value in the data set on HeLa cells [1] (100 μM) was 70%. In the data set with HeLa cells [2], the cell death was found to be 100% and the IC50 is 43.8 µM. On LDH-A [3], this molecule registered a Ki of 10.8 µM. Moreover, the cell death entry with WT-MEF was “less than 20%”.

For the molecule `COC(=O)c1cc2c(C(F)(F)F)cc(-c3ccccc3)cc2n1O` [Compound 2, methyl 1-hydroxy-6-phenyl-4-(trifluoromethyl)-1H-indol-2-carboxylate], the “lactate production relative to vehicle” value in the data set on HeLa cells [1] (200 μM) is on record as ~ 20%. In addition, the cell death is recorded as 100% in the data set with HeLa cells [2] and “approximately 70%” in the data set on WT-MEF. In addition, the IC50 in the data set with HeLa cells [2] came to 33.4 µM. Further, the “concentration in HeLa cell lysate solution relative to free acid 1” value in the data set on HeLa cells [4] (LC-MS) is recorded as ~ 4 fold. Also, the “cleavage of methyl ester following cellular incubation” value with HeLa cells [4] (HeLa cells) is reported as “No cleavage”. The “cleavage in HeLa cell lysate” value in the data set “Stability [5]” was “not appreciably cleaved”. The “stability / cleavage in culture media” value in the data set “Stability [6]” was “not appreciably cleaved”.

With `Cc1nc2ccc(NC(=O)CCNC(=O)CCCc3ccc(CC(C(=O)O)C(=O)O)cc3)cc2s1` [Compound 3, 2-(4-(4-((3-((2-methylbenzo[d]thiazol-6-yl)amino)-3-oxopropyl)amino)-4-oxobutyl)benzyl)malonic acid, reference compound], the IC50 was 1 ± 0.2 µM against LDH-A [7], above 500 µM in the data set with HeLa cells [2] and 0.5 µM in the data set on LDH-A [8]. Moreover, the “effect on lactate production” value in the data set with HeLa cells [1] is given as “did not show any effect”. Also, the “cellular uptake in HeLa cells” value with HeLa cells [4] (LC-MS) is “could not be detected in lysate”. Further, the Ki at LDH-A [3] came to 0.23 µM. Further, in data set [9], the “activity in cell-based assays (literature)” value was “inactive”.

As for `COC(=O)C(Cc1ccc(CCCC(=O)NCCC(=O)Nc2ccc3nc(C)sc3c2)cc1)C(=O)OC` [Compound 4, dimethyl 2-(4-(4-((3-((2-methylbenzo[d]thiazol-6-yl)amino)-3-oxopropyl)amino)-4-oxobutyl)benzyl)malonate, reference compound], the “LDH-A (IC50) [NADH]” value on LDH-A [7] (NADH-competition assay: 1440 μM sodium pyruvate, 40 μM NADH, mean ± SD) is listed as “lack of inhibitory potency”. Also, in the data set on HeLa cells [1], the “effect on lactate production” value is “significant reduction”. For the same molecule, the IC50 in the data set on HeLa cells [2] was 75.4 µM. Further, the “cellular uptake in HeLa cells” value in the data set with HeLa cells [4] (LC-MS) was “efficient cell uptake”. In “Stability [5]”, the “cleavage in HeLa cell lysate” value is given as “substantially cleaved to compound 5” and the “monohydrolysis to monoester 5 in HeLa cell lysate” value is ~ 50%. Further, the “stability / cleavage in culture media” value in “Stability [6]” is reported as “stable; also recorded: not appreciably cleaved”.

Consider `COC(=O)C(Cc1ccc(CCCC(=O)NCCC(=O)Nc2ccc3nc(C)sc3c2)cc1)C(=O)O` (stereo not drawn) [Compound 5, 3-Methoxy-2-(4-(4-((3-((2-methylbenzo[d]thiazol-6-yl)amino)-3-oxopropyl)amino)-4-oxobutyl)benzyl)-3-oxopropanoic acid], for which, in the data set with HeLa cells [1], the “effect on lactate production” value is “failed to result in any substantial reduction”. Further, the “cell death in HeLa cells” value with HeLa cells [2] (72 hour treatment, up to 200 μM) is “No substantial cell death”. Further, the “cellular uptake in HeLa cells” value with HeLa cells [4] (LC-MS) is recorded as “no direct cell uptake”.

The IC50 is the concentration needed to halve the response being measured. The term Ki denotes the dissociation constant of the complex between target and ligand, obtained from inhibition or displacement.

The values are drawn from publication PMC3828658 (Organic & biomolecular chemistry, 2013).
